# Test results taken from the Kinase Knowledgebase extract (Sharma et al. 2016).
# Molecular target: PIK3CD (Human) (UniProt O00329)
# Test: Assessment of PIK3CD Kinase Activity
# Sequence of PIK3CD (Human) (O00329 whole entry, looked up): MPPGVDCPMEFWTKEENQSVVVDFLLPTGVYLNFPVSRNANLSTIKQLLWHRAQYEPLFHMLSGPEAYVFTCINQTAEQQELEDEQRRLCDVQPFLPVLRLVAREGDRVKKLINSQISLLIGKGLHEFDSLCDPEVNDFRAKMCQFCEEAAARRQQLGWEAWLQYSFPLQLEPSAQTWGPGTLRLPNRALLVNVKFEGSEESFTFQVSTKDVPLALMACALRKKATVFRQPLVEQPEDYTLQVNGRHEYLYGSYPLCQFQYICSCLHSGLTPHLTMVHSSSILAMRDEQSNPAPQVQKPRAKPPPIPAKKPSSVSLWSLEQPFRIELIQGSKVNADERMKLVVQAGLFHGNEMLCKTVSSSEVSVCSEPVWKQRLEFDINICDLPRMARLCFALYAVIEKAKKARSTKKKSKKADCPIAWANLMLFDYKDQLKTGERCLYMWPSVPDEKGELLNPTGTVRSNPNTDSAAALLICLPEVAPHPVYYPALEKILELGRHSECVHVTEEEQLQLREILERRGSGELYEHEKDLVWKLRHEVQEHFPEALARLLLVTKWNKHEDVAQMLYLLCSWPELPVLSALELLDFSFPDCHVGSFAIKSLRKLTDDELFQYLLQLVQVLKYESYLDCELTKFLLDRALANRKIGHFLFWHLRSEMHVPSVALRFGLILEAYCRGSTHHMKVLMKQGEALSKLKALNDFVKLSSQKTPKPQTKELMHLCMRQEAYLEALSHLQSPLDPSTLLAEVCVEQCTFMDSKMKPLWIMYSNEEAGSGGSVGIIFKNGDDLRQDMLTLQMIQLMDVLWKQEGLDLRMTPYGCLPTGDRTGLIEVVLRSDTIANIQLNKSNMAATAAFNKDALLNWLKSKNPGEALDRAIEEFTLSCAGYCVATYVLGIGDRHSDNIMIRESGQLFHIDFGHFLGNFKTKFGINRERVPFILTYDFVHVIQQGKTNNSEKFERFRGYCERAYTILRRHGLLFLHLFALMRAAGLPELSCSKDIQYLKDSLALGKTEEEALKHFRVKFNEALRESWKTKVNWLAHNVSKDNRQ
row,IC50 [nM],Structure (SMILES)
1,500 to 1500,COc1cc(OC)cc(OCc2cc3cccc(C)c3nc2-c2ccccc2Cl)c1
2,500 to 1500,COc1cc(NCc2cc3cccc(C)c3nc2-c2ccccc2Cl)cc(OC)c1
3,500 to 1500,CNCCN(C)c1nc2c(C)cccc2cc1COc1cccc(OC)c1
4,250 to 500,CCOc1ccccc1-c1nc2c(C)cccc2cc1Cn1cnc2c(N)ncnc21
5,50 to 250,Cc1ccc(C)c(-c2nc3c(C)cccc3cc2Cn2cnc3c(N)ncnc32)c1
6,500 to 1500,COc1cccc(NCc2cc3cccc(C)c3nc2-c2ccccc2Cl)c1
7,50 to 250,CNCCCC(C)c1nc2c(C)cccc2cc1CNC(=O)c1nccnc1N (configuration not stated)
8,500 to 1500,COc1cnc(C(=O)NCc2nc3ccccc3cc2-c2ccccc2C)c(N)n1
9,500 to 1500,Cc1cccc2cc(CNC(=O)c3nccnc3N)c(N3CCC(N(C)C(=O)OC(C)(C)C)CC3)nc12
10,500 to 1500,Cc1ccc(S(=O)(=O)C(C)CCN(C)c2nc3c(C)cccc3cc2CNC(=O)c2nccnc2N)cc1 (configuration not stated)
11,500 to 1500,COc1ccc(NCc2cc3cccc(C)c3nc2-c2ccccc2Cl)cc1OC
12,250 to 500,Cc1cccc2cc(CNC(=O)c3nccnc3N)c(N3C[C@H](C)NC[C@H]3C)nc12
13,500 to 1500,COc1ccc(OCc2cc3cccc(C)c3nc2-c2ccccc2Cl)c(Cl)c1
14,500 to 1500,CNCCN(C)c1nc2c(C)cccc2cc1CNc1cccc(OC)c1
15,< 50,CN(C)Cc1ccccc1-c1cc2c(Cl)cccc2nc1CNC(=O)c1nccnc1N
16,50 to 250,Cc1cccc2cc(CNC(=O)c3nccnc3N)c(N(C)CCN(C)C(=O)[C@@H]3CCCN3)nc12
17,500 to 1500,Cc1cccc2cc(Cn3cnc4c(N)ncnc43)c(N3CCC4CCCCC4C3)nc12 (configuration not stated)
